Measurements: patent US11174301B2 (Takeda Pharmaceutical Company Limited, priority 2017, dated 2021)

Columns and labels:
Assay type in all cases: in vivo
ferrets [1] = test: Morphine-induced acute emetic model in ferrets; conditions: for Morphine-induced emesis: 1 nmol/kg s.c. 30 minutes before morphine (0.6 mg/kg, s.c.); for Ferrets in which the vomiting symptom was observed: 30 nmol/kg s.c., morphine 0.6 mg/kg s.c. 4 hours after administration, monitored 60 minutes, FIG. 6A; for Ferrets in which the vomiting symptom was observed / Vomiting symptom, morphine 120 hours after administration: n=4; for Vomiting symptom, morphine 120 hours after administration: 144 μg/kg (30 nmol/kg) s.c., morphine 0.6 mg/kg s.c. 120 hours after administration, FIG. 6B
Procedure: 4. Effect of Subcutaneously Administered GIP Agonist Analogue in Morphine-Induced Acute Emetic Model
Male ferrets (4-month-old) were repeatedly used until 8-month-old. To evaluate the antiemetic effect, the GIP agonist analogues other than natural human GIP were subcutaneously administered 30 minutes before morphine administration. Natural human GIP was subcutaneously administered 5 minutes before morphine administration.
At the time of each of 4 hours, or 120 hours after administration, 0.6 mg/kg of morphine was subcutaneously administered. Up to 60 minutes after morphine administration, the condition of the ferrets was monitored to record the frequencies and time points of abdominal contraction motions, vomiting behaviors, licking with the tongue, and fidgety behavior occurring.

C57BL/6J mice [2] = test: Oral glucose tolerance test (1); conditions: 0.03 nmol/kg, s.c. 30 minutes before glucose loading, control group = 100; for Rate of increase in blood glucose level (%) 30 min: 30 minutes after oral glucose; for Rate of increase in blood glucose level (%) 60 min: 60 minutes after oral glucose
Procedure: Oral Glucose Tolerance Test (1)
An oral glucose tolerance test (OGTT) was carried out using C57BL/6J mice with a […].

C57BL/6J mice [3] = test: Oral glucose tolerance test (2); conditions: 3 nmol/kg, s.c. 72 hours before glucose loading, 30 minutes after oral glucose, control group = 100
Procedure: Oral Glucose Tolerance Test (2)
An oral glucose tolerance test (OGTT) was carried out using C57BL/6J mice with a […].

beagles = test: PYY-1119-induced vomiting in dogs; conditions: for Frequency of vomiting: 2-hour observation
ferrets [4] = test: Cisplatin-induced acute vomiting model in ferrets
Procedure: Test Example 4: Vomiting Suppression Test in Ferrets
The ferret test was carried out by Nissei Bilis Co., Ltd. (Shiga prefecture, Japan). Cisplatin (10 mg/kg i.p.) was administered to male ferrets (10-week-old, n=6) to induce acute vomiting. […] The frequency of emesis (feeling queasy, vomiting) was monitored over a period of 8 hours after cisplatin administration.
Up to 6 hours after cisplatin administration, the condition of the ferrets was monitored to record the frequencies and time points of abdominal contraction motions and vomiting behaviors occurring.

male C57BL/6J mice = test: Conditioned taste aversion test in mice (PYY-1119-induced)
Procedure: Test Example 3: Conditioned Taste Aversion Test in Mice (FIG. 1A, FIG. 1B)
Additionally, the test compound or a solvent is subcutaneously administered simultaneously with PYY-1119.
On day 2, only a solvent is administered 10 minutes after presenting tap water.
On day 4, only tap water is presented.
On day 5, a test of selection from the bottles of saccharine water and tap water is carried out and preferential selection of saccharine water is evaluated.

ferrets [5] = test: Cisplatin-induced delayed vomiting model in ferrets; conditions: monitored 72 hours
Procedure: Up to 72 hours after cisplatin administration, the condition of the ferrets was monitored to record the frequencies and time points of abdominal contraction motions and vomiting behaviors occurring.

“Methyl-Tyr-Aib-Glu-Gly-Thr-Iva-Ile-Ser-Asp-Tyr-Ser-Ile-Aib-Leu-Asp-Arg-Aib-Ala-Gln-Aib-Asn-Phe-Val-Asn-Trp-Iva-Leu-Ala-Gln-Arg-Pro-Ser-Ser-Gly-Ala-Pro-Pro-Pro-Ser-Arg-NH2 [Compound 113]” was tested, and the Morphine-induced emesis (ferrets [1]; 0.1 nmol/kg, FIG. 5) was “suppressed the morphine-induced emesis”, the “Rate of increase in blood glucose level (%) 30 min” value (“Rate of increase … (%) 30 min” below) (C57BL/6J mice [2]) was 48% and the “Rate of increase in blood glucose level (%) 60 min” value (shortened to “Rate of increase … (%) 60 min”) (C57BL/6J mice [2]) was 11%.
In the case of “Methyl-Tyr-Aib-Glu-Gly-Thr-Phe-Ile-Ser-Asp-Tyr-Ser-Ile-Ala-Leu-Asp-Arg-Ile-Ala-Gln-Gln-Asp-Phe-Val-Asn-Trp-Leu-Leu-Ala-Gln-Arg-Pro-Ser-Ser-Gly-Ala-Pro-Pro-Pro-Ser-Arg-NH2 [Compound 59]”, the “Rate of increase … (%) 30 min” value (C57BL/6J mice [2]) is reported as 41% and the “Rate of increase … (%) 60 min” value (C57BL/6J mice [2]) is reported as 23%.
For “H-Tyr-Aib-Glu-Gly-Thr-Val-Val-Ser-Leu-Tyr-Ser-Ile-Aib-Leu-Asp-Arg-Gln-Ala-Gln-Aib-Glu-Phe-Val-Arg-Trp-Leu-Leu-Arg-Gly-Gly-Pro-Ser-Ser-Gly-Ala-Pro-Pro-Pro-Ser-Arg-NH2 [Compound 30]”, the “Rate of increase … (%) 30 min” value (C57BL/6J mice [2]) was 96% and the “Rate of increase … (%) 60 min” value (C57BL/6J mice [2]) was 85%.
With “H-MeTyr-Aib-Glu-Gly-Thr-Iva-Ile-Ser-Asp-Tyr-Ser-Ile-Aib-Leu-Asp-Arg-Lys(Oda-GGGGG-)-Ala-Gln-Aib-Asn-Phe-Val-Asn-Trp-Iva-Leu-Ala-Gln-Arg-Pro-Ser-Ser-Gly-Ala-Pro-Pro-Pro-Ser-NH2 [Compound 349]” the “Ferrets in which the vomiting symptom was observed” value (ferrets [1]) was “none of the 4 ferrets”, the “Vomiting symptom, morphine 120 hours after administration” value (ferrets [1]) was “suppression of the vomiting symptom was noted” and the “Rate of increase in blood glucose level (%) 72 hr” value (C57BL/6J mice [3]) was 69%.
In the case of “Methyl-Tyr-Aib-Glu-Gly-Thr-Phe-Ile-Ser-Asp-Tyr-Ser-Ile-Ala-Leu-Asp-Arg-Aib-His-Gln-Aib-Asn-Phe-Val-Asn-Trp-Iva-Leu-Ala-Gln-Arg-Pro-Ser-Ser-Gly-Ala-Pro-Pro-Pro-Ser-Arg-NH2 [Compound 117]”, the Morphine-induced emesis (ferrets [1]; FIG. 3, FIG. 4) is reported as “suppressed the morphine-induced emesis”, the “Rate of increase … (%) 30 min” value (C57BL/6J mice [2]) is reported as 51% and the “Rate of increase … (%) 60 min” value (C57BL/6J mice [2]) is reported as 16%. The Frequency of vomiting (beagles; 10 nmol/kg s.c. 1 hour before PYY-1119 (10 μg/kg, s.c.), FIG. 7B) was 0 to 3 times, the “Average suppression rate of the frequency of vomiting” value (beagles; 10 nmol/kg s.c. 1 hour before PYY-1119, versus medium group) was 93% and the “Cisplatin-induced acute vomiting symptom” value (ferrets [4]; 0.15, 0.5, 1.5, 5 and 15 μg/kg (0.03, 0.1, 0.3, 1 and 3 nmol/kg) s.c. 1 hour before cisplatin 10 mg/kg i.p., monitored 6 hours, FIG. 2B) was “suppression of the vomiting symptom was noted in a dose-dependent manner”. For the same substance, the PYY-1119-induced taste aversion (male C57BL/6J mice; 0.003, 0.01, 0.03, 0.1, 0.3 or 1 nmol/kg s.c. simultaneously with PYY-1119 (10 nmol/kg, s.c.), FIG. 1B) was “suppressed the PYY-1119-induced taste aversion in a dose-dependent manner” and the “Latency of the vomiting symptom (time from cisplatin administration to initial occurrence)” value (ferrets [5]; […] (0.3 nmol/kg) or 15 μg/kg (3 nmol/kg) s.c. 34 hours after cisplatin 5 mg/kg i.p., FIG. 2C) was “delayed”.
With “H-Tyr-Aib-Glu-Gly-Thr-Val-Val-Ser-Leu-Tyr-Ser-Ile-Aib-Leu-Asp-Lys-Gln-Ala-Gln-Aib-Glu-Phe-Val-Lys-Trp-Aib-Leu-Lys-Gly-Gly-Pro-Ser-Ser-Gly-Ala-Pro-Pro-Pro-Ser-Lys-NH2 [Compound 42]” the “Rate of increase … (%) 30 min” value (C57BL/6J mice [2]) was 70% and the “Rate of increase … (%) 60 min” value (C57BL/6J mice [2]) was 43%.
In the case of “Methyl-Tyr-Aib-Glu-Gly-Thr-Iva-Ile-Ser-Asp-Tyr-Ser-Ile-Ala-Leu-Asp-Arg-Aib-Ala-Gln-Aib-Asn-Phe-Val-Asn-Trp-Leu-Leu-Ala-Gln-Arg-Pro-Ser-Ser-Gly-Ala-Pro-Pro-Pro-Ser-Arg-NH2 [Compound 104]”, the Morphine-induced emesis (ferrets [1]; FIG. 3, FIG. 4) is reported as “suppressed the morphine-induced emesis”, the “Rate of increase … (%) 30 min” value (C57BL/6J mice [2]) is reported as 31% and the “Rate of increase … (%) 60 min” value (C57BL/6J mice [2]) is reported as 8%.
In the case of “H-Tyr-Aib-Glu-Gly-Thr-Val-Val-Ser-Leu-Tyr-Ser-Ile-Aib-Leu-Asp-Lys-Gln-Ala-Gln-Aib-Glu-Phe-Val-Lys-Trp-Leu-Leu-Lys-Gly-Gly-Pro-Ser-Ser-Gly-Ala-Pro-Pro-Pro-Ser-Lys-NH2 [Compound 6]”, the Morphine-induced emesis (ferrets [1]; FIG. 3, FIG. 4) is reported as “completely attenuated”, the “Rate of increase … (%) 30 min” value (C57BL/6J mice [2]) is reported as 56% and the “Rate of increase … (%) 60 min” value (C57BL/6J mice [2]) is reported as 31%. The Frequency of vomiting (beagles; 150 nmol/kg s.c. 10 minutes before PYY-1119 (10 μg/kg, s.c.), FIG. 7A) was 0 to 3 times, the “Cisplatin-induced acute emesis (frequency of emesis)” value (ferrets [4]; 167 nmol/kg/hour subcutaneously injected from 1 hour before cisplatin (10 mg/kg i.p.), monitored 8 hours, FIG. 2A) was “completely eliminated the acute emesis” and the PYY-1119-induced taste aversion (male C57BL/6J mice; 1, 3, 10, 30 or 100 nmol/kg s.c. simultaneously with PYY-1119 (10 nmol/kg, s.c.), FIG. 1A) was “suppressed the PYY-1119-induced taste aversion in a dose-dependent manner”.
For “H-MeTyr-Aib-Glu-Gly-Thr-Iva-Ile-Ser-Asp-Tyr-Ser-Ile-Aib-Lys(Eda-GGGGG-)-Asp-Arg-Aib-Ala-Gln-Aib-Asn-Phe-Val-Asn-Trp-Iva-Leu-Ala-Gln-Arg-Pro-Ser-Ser-Gly-Ala-Pro-Pro-Pro-Ser-NH2 [Compound 341]”, the “Ferrets in which the vomiting symptom was observed” value (ferrets [1]) was “none of the 4 ferrets”, the “Vomiting symptom, morphine 120 hours after administration” value (ferrets [1]) was “none of the 4 ferrets” and the “Rate of increase in blood glucose level (%) 72 hr” value (C57BL/6J mice [3]) was 47%. The “Cisplatin-induced delayed vomiting symptom” value (ferrets [5]; 144 μg/kg (30 nmol/kg) s.c. 34 hours after cisplatin 5 mg/kg i.p.) was “suppression of the vomiting symptom was noted”.
